Experimental data: US20230094952A1, “Method for Culturing Hematopoietic Stem Cells” (Sumitomo Pharma Co., Ltd., priority 2019, published 2023)

What was measured:
mouse HoxB5 = assay: Confirmation test by gene expression of mouse HoxB5 (qRT-PCR); assay type: cell-based; conditions: for mGAPDH Ct value / mHoxB5 Ct value: day 7 of culture; for Ct value difference: mHoxB5 minus mGAPDH
Procedure: Cells cultured in the presence of artemether were evaluated by gene expression of mouse HoxB5. Cells were cultured in the same manner as in Example 3, and the cells after culture were treated with a Single Cell to CT qRT-PCR kit (manufactured by Life Technologies) according to the instruction of the kit. The cells treated were washed once with PBS, a cell-lysing solution was then added thereto, and the resultant was subjected to RNA extraction followed by reverse transcription reaction for cDNA synthesis, amplified through Taqman Gene Expression Assay in 14 cycles, and diluted with 1×TE buffer (pH 8.0). Real-time PCR was performed with the following Taqman probes at 95° C. for 3 seconds and at 60° C. for 30 seconds in 40 cycles to amplify the sample (HoxbB5: Mm00657672 (manufactured by Thermo Fisher Scientific), Gapdh: Mm99999915-g1 (manufactured by Thermo Fisher Scientific)). All the thermal cycler operations were analyzed by using a QuantStudio 6 (manufactured by Applied Biosystems) (Table 5).
From Table 5, we were able to confirm, by allowing the compound to act, the expression of the long-term hematopoietic stem cell marker HoxB5 in cells on day 7 of culture under culture conditions such that the mouse HoxB5 Ct value was 30 or less and the ACT value was 16 or less.

[1] = test system: mouse long-term hematopoietic stem cells; assay: Combination test with UM171 on mouse long-term hematopoietic stem cells; assay type: cell-based; conditions: n=2
Procedure: The cells after classification were seeded in a 96-well plate. A cell culture medium was prepared by adding Stem Cell Factor (SCF, manufactured by PeproTech, Inc.) and Thrombopoietin (TPO, manufactured by PeproTech, Inc.) to StemSpan SFEM culture medium (manufactured by […] Technologies Inc.) and added in advance to a cell culture 96-well plate (manufactured by BD Biosciences) at 100 μL/well, and the cells sorted with the FACS Aria II cell sorter (BD Biosciences) were then seeded at 10 cells/well.
The test compounds each in the form of 10 mM DMSO solution were diluted with the cell culture medium to a final concentration of 1 μM, and added to the cells seeded after classification through medium exchange to a final volume of 200 μL/well. Thereafter, the cells were cultured in a CO2 incubator under conditions of 37° C. and 5% CO2 for 1 week.
After culture, the cells were stained with the antibodies for the surface markers c-Kit and Sca-1, Ter-119, B220, CD3, CD4, CD8a, Gr-1, and CD11b, and the ratio and post-growth cell count of a KLS fraction (c-Kit^+, Lin^−, Sca-1^+) or an mCherry-positive fraction given with use of a FACS Aria II cell sorter were analyzed by using FlowJo (BD Biosciences). The mCherry-positive fraction is a cell fraction expressing the Hoxb5 gene, and the KLS fraction is a cell fraction being c-Kit-positive, Lin-negative, and Sca-1-positive, and includes hematopoietic stem cells and multipotent progenitor cells as main components.
A DMSO solution of artemether was adjusted with the cell culture medium to three final concentrations (0.1 μM, 1 μM, 10 μM), and a DMSO solution of UM171 was adjusted with the cell culture medium to four final concentrations (0.1 μM, 0.3 μM, 1 μM, 3 μM), and cell culture was performed at n=2 by the same method as in Example 1. The cell culture and evaluation criteria were the same as those in Example 2.

[2] = artemether 0.1 μM + UM171 0.1 μM
[3] = artemether 0.1 μM + UM171 0.3 μM
[4] = artemether 10 μM + UM171 0.1 μM
[5] = artemether 10 μM + UM171 0.3 μM

`CO[C@H]1O[C@@H]2O[C@@]3(C)CC[C@H]4[C@H](C)CC[C@@H]([C@H]1C)[C@@]24OO3` [Example 1-30, artemether, reference compound] was tested. Which “mGAPDH Ct value” (mouse HoxB5; compound 0.03 μM) did it give?
The value was 13.12.

And the “mHoxB5 Ct value” (mouse HoxB5; compound 0.03 μM)?
The value was 30.72.

And the “mGAPDH Ct value” (mouse HoxB5; compound 0.1 μM)?
Its value is 13.23.

And the “mHoxB5 Ct value” (mouse HoxB5; compound 0.1 μM)?
The value was 30.57.

What about the “mGAPDH Ct value” (mouse HoxB5; compound 0.3 μM) of the same compound?
The value was 14.47.

What about the “mHoxB5 Ct value” (mouse HoxB5; compound 0.3 μM) of the same compound?
The value was 28.79.

What about the “mGAPDH Ct value” (mouse HoxB5; compound 1 μM) of the same compound?
The value was 13.02.

And the “mHoxB5 Ct value” (mouse HoxB5; compound 1 μM)?
The value was 31.18.

What about the “mGAPDH Ct value” (mouse HoxB5; compound 3 μM) of the same compound?
Its value is 13.90.

And the “mHoxB5 Ct value” (mouse HoxB5; compound 3 μM)?
The value was 28.99.

And the “mGAPDH Ct value” (mouse HoxB5; compound 10 μM)?
Its value is 17.68.

What about the “mHoxB5 Ct value” (mouse HoxB5; compound 10 μM) of the same compound?
Its value is 27.62.

What about the Ct value difference (mouse HoxB5; compound 0.03 μM) of the same compound?
The Ct value difference was 17.60.

What about the Ct value difference (mouse HoxB5; compound 0.1 μM) of the same compound?
Its Ct value difference is 17.34.

And the Ct value difference (mouse HoxB5; compound 0.3 μM)?
The Ct value difference was 14.31.

And the Ct value difference (mouse HoxB5; compound 1 μM)?
Its Ct value difference is 18.16.

What about the Ct value difference (mouse HoxB5; compound 3 μM) of the same compound?
The Ct value difference was 15.10.

What about the Ct value difference (mouse HoxB5; compound 10 μM) of the same compound?
The Ct value difference was 9.94.

What about the KLS-positive rate [1, 2] of the same compound?
Its KLS-positive rate is 52.0%.

And the Viable cell count [1, 2]?
Its Viable cell count is 430.0 cell.

And the mCherry-positive rate [1, 2]?
Its mCherry-positive rate is 51.8%.

And the KLS-positive rate [1, 3]?
The KLS-positive rate was 42.0%.

What about the Viable cell count [1, 3] of the same compound?
Its Viable cell count is 257.0 cell.

What about the mCherry-positive rate [1, 3] of the same compound?
Its mCherry-positive rate is 78.1%.

And the KLS-positive rate ([1]; artemether 0.1 μM + UM171 1 μM)?
Its KLS-positive rate is 93.4%.

And the Viable cell count ([1]; artemether 0.1 μM + UM171 1 μM)?
Its Viable cell count is 28.5 cell.

What about the mCherry-positive rate ([1]; artemether 0.1 μM + UM171 1 μM) of the same compound?
Its mCherry-positive rate is 100.0%.

What about the KLS-positive rate ([1]; artemether 0.1 μM + UM171 3 μM) of the same compound?
The KLS-positive rate was 60.6%.

What about the Viable cell count ([1]; artemether 0.1 μM + UM171 3 μM) of the same compound?
The Viable cell count was 101.5 cell.

What about the mCherry-positive rate ([1]; artemether 0.1 μM + UM171 3 μM) of the same compound?
Its mCherry-positive rate is 82.4%.

What about the KLS-positive rate ([1]; artemether 1 μM + UM171 0.1 μM) of the same compound?
The KLS-positive rate was 33.1%.

And the Viable cell count ([1]; artemether 1 μM + UM171 0.1 μM)?
Its Viable cell count is 269.0 cell.

What about the mCherry-positive rate ([1]; artemether 1 μM + UM171 0.1 μM) of the same compound?
The mCherry-positive rate was 96.3%.

What about the KLS-positive rate ([1]; artemether 1 μM + UM171 0.3 μM) of the same compound?
Its KLS-positive rate is 48.6%.

And the Viable cell count ([1]; artemether 1 μM + UM171 0.3 μM)?
Its Viable cell count is 151.0 cell.

And the mCherry-positive rate ([1]; artemether 1 μM + UM171 0.3 μM)?
The mCherry-positive rate was 99.1%.

What about the KLS-positive rate ([1]; artemether 1 μM + UM171 1 μM) of the same compound?
The KLS-positive rate was 93.7%.

What about the Viable cell count ([1]; artemether 1 μM + UM171 1 μM) of the same compound?
The Viable cell count was 23.0 cell.

What about the mCherry-positive rate ([1]; artemether 1 μM + UM171 1 μM) of the same compound?
Its mCherry-positive rate is 100.0%.

What about the KLS-positive rate ([1]; artemether 1 μM + UM171 3 μM) of the same compound?
Its KLS-positive rate is 67.3%.

What about the Viable cell count ([1]; artemether 1 μM + UM171 3 μM) of the same compound?
Its Viable cell count is 23.5 cell.

And the mCherry-positive rate ([1]; artemether 1 μM + UM171 3 μM)?
Its mCherry-positive rate is 100.0%.

And the KLS-positive rate [1, 4]?
Its KLS-positive rate is 56.7%.

What about the Viable cell count [1, 4] of the same compound?
The Viable cell count was 122.0 cell.

And the mCherry-positive rate [1, 4]?
The mCherry-positive rate was 99.6%.

What about the KLS-positive rate [1, 5] of the same compound?
Its KLS-positive rate is 91.1%.

And the Viable cell count [1, 5]?
Its Viable cell count is 38.0 cell.

And the mCherry-positive rate [1, 5]?
Its mCherry-positive rate is 100.0%.

And the KLS-positive rate ([1]; artemether 10 μM + UM171 1 μM)?
Its KLS-positive rate is 95.9%.

And the Viable cell count ([1]; artemether 10 μM + UM171 1 μM)?
Its Viable cell count is 9.5 cell.

And the mCherry-positive rate ([1]; artemether 10 μM + UM171 1 μM)?
The mCherry-positive rate was 100.0%.

What about the KLS-positive rate ([1]; artemether 10 μM + UM171 3 μM) of the same compound?
The KLS-positive rate was 94.7%.

What about the Viable cell count ([1]; artemether 10 μM + UM171 3 μM) of the same compound?
Its Viable cell count is 19.0 cell.

And the mCherry-positive rate ([1]; artemether 10 μM + UM171 3 μM)?
Its mCherry-positive rate is 96.9%.
